Consider 1 molecule from ChEMBL document CHEMBL5729352, “Broad spectrum antiviral compositions and methods” (2022).

The nature of the assay: Assessing Antiviral Activity Against Human Cytomegalovirus (HCMV): To assess their antiviral activity, some compounds were tested against human cytomegalovirus (HCMV) in vitro. Human […] cells were grown to confluency (˜1.0×10^4 cells/well) in 96-well plate format in Dulbecco's Modified Eagle Medium (DMFM) supplemented with 10% fetal bovine serum (FBS) 2 mM L-glutamine, 0.1 mM non-essential amino acids, 10 mM HEPES, and 100 U/ml each of penicillin and streptomycin and infected with an HCMV variant expressing mCherry tagged pUL99 (the product of late viral UL99 gene) at a multiplicity of 0.01 infectious unit (IU) per cell. Assays were performed in triplicate. One hour later, medium of the cells was replaced with fresh medium containing the indicated compounds at 25, 12.5, 6.25, 3.13, 1.56, 0.78, 0.39 μM or the carrier in which the compounds are dissolved (DMSO). Final concentration of DMSO was 0.5% in each treatment. Virus yield in the culture was determined at 7 days post infection by quantification of fluorescent (mCherry positive) cells in each well by fluorescent microscopy. Results were plotted using CDD Vault (CDD Vault was developed by Collaborative Drug Discovery, Inc., 1633 Bayshore Hwy, Suite 342, Burlingame, Calif. 94010) in order to calculate IC50s. It is filed as cell-based.

For orientation: IC50 means the concentration at which inhibition is half-maximal.

`NC(=O)c1cccc(Cc2cnc(N3CCc4cc5c(cc4C3)OCCO5)s2)c1`: the IC50 was 8.63 µM.
